Results: EP0205029A2, “Quinolinecarboxylic acids with an antibacterial activity” (BAYER AG, priority 1985, dated 1986)

How the values were obtained:
[1] = local tolerability after repeated subcutaneous application; assay type: in vivo; conditions: Mäuse, subkutan, 5 Tage 2 x pro Tag, 1 bis 10 % Lösungen, 100 mg/kg bis 300 mg/kg
Description: (§1) Die erfindungsgemäßen Verbindungen zeigen eine ausgezeichnete lokale Verträglichkeit, z. B, nach subkutaner Applikation, im Gegensatz zu den freien Carbonsäuren. Dazu wurden Mäuse über 5 Tage 2 x pro Tag mit 1 bis 10 % Lösungen der Wirkstoffe subkutan behandelt, entsprechend einer Dosis von 100 mg/kg bis 300 mg/kg. Während der Behandlungsperiode sowie nach Absetzen der Behandlung wurden die Tiere beobachtet. Es zeigte sich, daß die Mäuse, die mit den erfindungsgemäßen Verbindungen, z. […] Somit sind die erfindungsgemäßen Verbindungen lokal deutlich besser verträglich als die entsprechenden freien Carbonsäuren und es können Lösungen im oben genannten Konzentrationsbereich bei guter lokaler Verträglichkeit mehrfach angewendet werden. In einem Mäuseprotektionsversuch (Infektion intraperitoneal, Therapie 30 Minuten nach Infektion durch subkutane Gabe) konnte gezeigt werden, daß die Substanzen nach parenteraler Applikation eine gute protektive Wirkung bei erhöhter lokaler Verträglichkeit des Esters besitzen. Die erfindungsgemäßen Verbindungen sind damit in gleicher Dosis protektiv wirksam wie die deutlich schlechter verträglichen freien Carbonsäuren.

[2] = mouse protection test (intraperitoneal infection, subcutaneous therapy 30 minutes after infection); assay type: in vivo, Mäuse; conditions: sc, Infektion intraperitoneal, Therapie 30 Minuten nach Infektion
Description: as §1

Structure (SMILES) | lokale Verträglichkeit (Merkmale einer lokalen Gewebeschädigung im Bereich der Injektionsstelle) [1] | ED (80-100) [2] [mg/kg]
CCOC(=O)c1cn(C2CC2)c2cc(N3CCN(CC)CC3)c(F)cc2c1=O [Beispiel 1, 1-Cyclopropyl-6-fluor-7-(4-ethyl-1-piperazinyl)-1,4-dihydro-4-oxo-chinolin-3-carbonsäureethylester] | keine Merkmale einer lokalen Gewebeschädigung | –
CCN1CCN(c2cc3c(cc2F)c(=O)c(C(=O)O)cn3C2CC2)CC1 [Substanz A] | – | 2.5
CCOC(=O)c1cn(C2CC2)c2cc(N3CCN(CC)CC3)c(F)cc2c1=O [Substanz B] | – | 2.5
